# Assay results from patent US20050090457A1, “Method of treating mammals with genistein and/or genistein analogues” (N.V. NUTRICIA, priority 2002, published 2005).
# Read-outs that look alike come from different tables or passages of the source.
# Experiments:
# 3T3-L1 = conditions: cited from earlier work; for proliferation of preadipocytes: time- and dose-dependent
# PPARγ [1] = target: T1, PPARγ (Homo sapiens, UniProt P37231); experiment: Membrane-bound PPARγ binding assay
# T1 sequence (P37231 1-505): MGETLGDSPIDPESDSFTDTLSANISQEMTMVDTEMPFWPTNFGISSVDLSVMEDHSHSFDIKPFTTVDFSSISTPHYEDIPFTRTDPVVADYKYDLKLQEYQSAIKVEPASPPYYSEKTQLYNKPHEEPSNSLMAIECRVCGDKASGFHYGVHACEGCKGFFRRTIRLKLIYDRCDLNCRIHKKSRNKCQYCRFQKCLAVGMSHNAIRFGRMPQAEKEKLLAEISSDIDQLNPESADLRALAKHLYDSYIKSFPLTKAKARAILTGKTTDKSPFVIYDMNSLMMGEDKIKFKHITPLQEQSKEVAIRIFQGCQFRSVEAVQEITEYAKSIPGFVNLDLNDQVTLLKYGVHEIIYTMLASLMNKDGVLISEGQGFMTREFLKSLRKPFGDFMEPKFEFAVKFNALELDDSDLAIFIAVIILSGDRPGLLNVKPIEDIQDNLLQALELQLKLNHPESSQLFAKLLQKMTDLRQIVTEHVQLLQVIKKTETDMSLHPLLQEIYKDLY
# Source text: The dose-related increase of PPRE reporter activity by genistein was also observed when a luciferase reporter construct containing three copies of a consensus PPRE inserted in front of a minimal thymidine kinase promoter. To determine whether genistein activates PPARγ through direct interaction with this receptor, we performed membrane-bound PPARγ binding assay.
# PPARγ [2] = target: T2, PPARγ (Mus musculus, UniProt P37238); conditions: cited from earlier work; for PPARγ binding and activation: may act as allosteric effectors
# T2 construct: host or cells: mouse macrophages
# T2 sequence (P37238 1-505): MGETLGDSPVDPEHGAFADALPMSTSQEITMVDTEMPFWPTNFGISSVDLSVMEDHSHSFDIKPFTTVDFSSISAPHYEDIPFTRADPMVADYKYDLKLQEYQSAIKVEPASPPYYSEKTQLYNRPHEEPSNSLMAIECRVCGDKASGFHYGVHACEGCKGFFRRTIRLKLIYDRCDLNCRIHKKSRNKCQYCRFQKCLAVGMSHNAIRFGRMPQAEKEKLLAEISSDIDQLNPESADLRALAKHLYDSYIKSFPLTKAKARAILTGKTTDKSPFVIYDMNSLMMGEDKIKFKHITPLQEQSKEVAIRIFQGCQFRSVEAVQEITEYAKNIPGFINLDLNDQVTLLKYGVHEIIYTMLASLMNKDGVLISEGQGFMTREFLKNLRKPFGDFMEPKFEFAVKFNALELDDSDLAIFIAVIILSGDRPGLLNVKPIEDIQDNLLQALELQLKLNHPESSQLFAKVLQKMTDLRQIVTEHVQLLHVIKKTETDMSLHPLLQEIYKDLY
# KS 483 cells = experiment: Osteogenesis in KS 483 cells (ALP activity, nodule formation, Ca deposition, osteoblastic marker mRNA); assay type: cell-based
# Experimental: KS 483 cells were continuously treated for 21 days with various concentrations of genistein from day one onwards. Genistein had clear biphasic effects on osteogenesis. The stimulatory effects of genistein on alkaline phosphatase (ALP) activity, nodule formation and Ca deposition were found in the range of 0.1 μM to 10 μM, with a maximal effect at 1 μM. In contrast, the inhibitory effects of genistein on ALP activity, nodule formation and Ca deposition occurred at concentrations of 25 μM or higher.
# [3] = system: mouse bone marrow cell cultures; experiment: Osteogenesis in mouse bone marrow cell cultures; assay type: cell-based
# Experimental: (§1) Similar stimulatory and inhibitory effects of genistein on bone formation were also observed in mouse and human bone marrow cell cultures. Like in KS483 cells, the stimulatory effects on ALP activity and Ca deposition in mouse bone marrow cultures occurred at concentrations between 0.1 μM and 10 μM, whereas the inhibitory effects were also found at the concentrations of 25 μM or higher. In human bone marrow cell cultures, the stimulatory effects was found at 0.001 μM, whereas the inhibitory effects were observed above 4 μM.
# [4] = system: human bone marrow cell cultures; experiment: Osteogenesis in human bone marrow cell cultures; assay type: cell-based
# Experimental: as §1
# KS483 cells = experiment: Adipogenesis (adipocyte numbers) in KS483 cells; assay type: cell-based; conditions: KS483 cells treated from day 1 onwards
# Source text: (§2) These inhibitory and stimulatory effects of genistein on adipogenesis in KS483 cells were further confirmed by mRNA expression of the adipocyte markers, PPARγ2, adipocyte protein 2 (aP2) and lipoprotein lipase (LPL). Adipogenic responses of mouse bone marrow cells to different doses of genistein were obtained.
# mouse bone marrow cells = experiment: Adipogenesis (adipocyte numbers) in mouse bone marrow cultures; assay type: cell-based
# Source text: as §2
# [5] = system: human bone marrow cultures; experiment: Adipogenesis (adipocyte numbers) in human bone marrow cultures; assay type: cell-based
# [6] = system: estrogenic receptor responsive element (ERE); experiment: ERE luciferase reporter in transiently transfected KS483 cells; assay type: cell-based
# Experimental: KS483 cell were transiently transfected with a luciferase reporter construct containing two copies of a consensus estrogenic receptor responsive element (ERE) inserted in front of TATA or five copies of a consensus PPARy responsive element (PPRE) inserted in front of TATA or empty TATA-luciferase reporter along with expression plasmids encoding human PPARγ2. […] Similarly, a dose-related increase of PPRE reporter activity was found in the range of 1 μM to 50 μM.
# It is also possible that an activation of PPARγ down regulated transcriptional activity of estrogen, i.e. there is cross-talk between ER's and PPARγ. […] Ligand concentration thus plays a crucial role in determining the degree of activation of ER's and PPARγ.
# human PPARγ2 = target: T3, human PPARγ2 (Homo sapiens, UniProt P37231); experiment: PPRE luciferase reporter in KS483 cells with human PPARγ2 expression plasmid; assay type: cell-based
# T3 construct: expressed in transfected cells; host or cells: KS483 cells
# T3 sequence (P37231 1-505): T1 sequence (P37231 1-505)
# Source text: KS483 cell were transiently transfected with a luciferase reporter construct containing two copies of a consensus estrogenic receptor responsive element (ERE) inserted in front of TATA or five copies of a consensus PPARy responsive element (PPRE) inserted in front of TATA or empty TATA-luciferase reporter along with expression plasmids encoding human PPARγ2.
# To determine whether genistein activates PPARγ through direct interaction with this receptor, we performed membrane-bound PPARγ binding assay.
# p42 and p44 MAPK = experiment: Western blot of p42 and p44 MAPK activity; assay type: cell-based
# Source text: It has been shown that phosphorylation of PPARγ by p42 and p44 mitogen activated protein kinase (MAPK) regulates PPARγ activity. We therefore performed western blot to test whether genistein at the micromolar concentrations inhibit p42 and p44 MAPK activity. […] An inhibition of p42 and p44 vMAPK activity is likely to potentiate PPARγ activity.
# [7] = system: estrogen receptors (ER's); experiment: In vitro model, summary: activation of estrogen receptors; assay type: cell-based; conditions: leads to stimulation of osteogenesis
# PPARγ [8] = target: T1, PPARγ; experiment: In vitro model, summary: activation of and binding to PPARγ; assay type: cell-based; conditions: triggers adipogenesis
# Source text: (§3) Despite the large number of prior art publications that deal with the favourable effect of genistein on e.g. osteogenesis and/or adipogenesis, it has not been recognized before that it is crucial to avoid that plasma genistein levels reach a level that is sufficient to activate the PPARγ receptor in order to prevent inhibition of osteoblast activity and differentiation and to prevent stimulation of adipogenesis. As a matter of fact some of these publications recommend genistein dosages and plasma levels that according to the inventors' findings will produce significant adverse results. The inventors have developed a highly reproducible and sensitive in vitro model that has allowed them to discover that the effect of genistein components on e.g. osteogenesis and adipogenesis is biphasic, i.e. at plasma genistein levels above about 0.02 μM estrogen receptors (ER's) may be activated, leading to stimulation of osteogenesis, whilst at plasma genistein levels above about 4 μM the PPARγ receptor is activated, which triggers adipogenesis. By maintaining the plasma genistein levels at a level where the estrogen receptors are continuously activated, whilst at the same time avoiding activation of the PPARγ receptor, disorders such as osteoporosis and obesity may effectively be treated. […] These effects are mediated through the ER's.
# At the same time the adipogenesis increases. […]
# [9] = system: osteogenesis and adipogenesis; experiment: In vitro model, summary: osteogenesis stimulated and adipogenesis inhibited; assay type: cell-based; conditions: low plasma concentrations, ER mediated
# Source text: as §3
# [10] = cited from earlier work
# [11] = system: ovariectomised, lactating rats; conditions: cited from earlier work
# [12] = dose 8 mg/kg body weight; cited from earlier work
# 3T3-L1 cels = conditions: cited from earlier work
# [13] = 61.7 μmole genistein per kg bodyweight per day
smiles,measurement,setting,value
"O=C1C[C@@H](c2ccc(O)cc2)Oc2cc(O)cc(O)c21 [naringenin, reference compound]",proliferation of preadipocytes,3T3-L1,inhibit proliferation of preadipocytes
"CCCc1c(OCCCCc2nnn[nH]2)ccc(C(C)=O)c1O [LY 171883, reference compound]",Ki,PPARγ [1],4.2 µM
O=c1c(O)c(-c2ccc(O)cc2)oc2cc(O)cc(O)c12 [kaempferol],PPARγ binding and activation,PPARγ [2],able to bind and activate PPARγ
O=c1cc(-c2ccc(O)cc2)oc2cc(O)cc(O)c12 [apigenin],PPARγ binding and activation,PPARγ [2],able to bind and activate PPARγ
O=c1c(-c2ccc(O)cc2)coc2cc(O)cc(O)c12 [genistein],"concentration of maximal stimulatory effect on ALP activity, nodule formation and Ca deposition","KS 483 cells; KS 483 cells, 21 days",1 µM
same,"concentrations of inhibitory effects on ALP activity, nodule formation and Ca deposition","KS 483 cells; KS 483 cells, 21 days",≥ 25 µM
same,"bone formation by mRNA expression of Cbfal, osteocalcin and PTH/PTHrP receptor",KS 483 cells; genistein 1 μM,increase of bone formation
same,"bone formation by mRNA expression of Cbfal, osteocalcin and PTH/PTHrP receptor",KS 483 cells; genistein 25 μM,decrease of bone formation
same,concentrations of inhibitory effects on bone formation,[3],≥ 25 µM
same,concentration at which stimulatory effects on bone formation were found,[4],0.001 µM
same,concentrations at which inhibitory effects on bone formation were observed,[4],above 4 μM
same,concentrations of increased adipocyte numbers,KS483 cells,≥ 10 µM
same,concentrations with an increase in adipocyte numbers,mouse bone marrow cells,above 4 μM
same,concentration with an increase in adipocyte numbers,[5],10 µM
same,concentration at which ERE reporter activity reaches the maximal level,[6]; KS483 cells,50 µM
same,effect of co-transfection of PPARγ2 on ERE reporter activity,[6]; KS483 cells exposed to the same concentrations of genistein,decreased ERE reporter activity
same,concentration at which PPRE reporter activity reaches the maximal level,human PPARγ2; KS483 cells,50 µM
same,effect of co-transfection of ERα on PPRE reporter activity,human PPARγ2; KS483 cells exposed to genistein,down regulation of PPRE reporter activity
same,Ki,PPARγ [1],5.7 µM
same,concentration range of inhibition of p42 and p44 MAPK activity,p42 and p44 MAPK,micromolar range
same,plasma genistein level above which estrogen receptors may be activated,[7],above 0.02 μM
same,genistein level above which the PPARγ receptor is bound/activated,PPARγ [8],above 4 μM
same,plasma concentrations at which osteogenesis is stimulated and adipogenesis is inhibited,[9],0.02 to 3 µM
same,plasma concentration of genistein,[10]; Japanese who consume high amounts of soy products,~5 µM
same,plasma concentration of genistein,[10]; humans consuming diets without soy,less than 20 nM
same,effect on uterine weight,[11]; [13],negative impact on uterine weight
same,response on retention of bone mass,[11]; [13],lower response
same,dosages with positive effect on the retention of bone mass,"[11]; ovariectomised, lactating rats",6.2-19.7 μmole genistein per kg bodyweight per day
same,PPARγ activity,PPARγ [2]; concentration of 10 μM,not stimulate PPARγ activity
same,PPAR-γ expression,3T3-L1; added to 2-day postconfluent preadipocytes at the induction of differentiation,inhibit PPAR-γ expression
same,proliferation of preadipocytes,3T3-L1,inhibit proliferation of preadipocytes
same,serum genistein,[12],~10 µM
same,D/M induced adipogenesis,"3T3-L1 cels; 3.3 μM, lowest concentration tested",weak inhibitory influence
same,D/M induced adipogenesis,3T3-L1 cels; 100 μM,effectively abolishes adipogenic conversion
same,D/M induced adipogenesis,3T3-L1 cels; 10 and 33 μM,marked inhibition of adipogenesis
